Measurements from US20220387350A1, “CANNABIDIVARIN PREPARATIONS FOR USE AS A MEDICAMENT” (GW Research Limited, priority 2019, published 2022).
Values joined by “and” are separate entries in the source; they are usually repeats but may differ in a detail not shown here. Identical values can stand only once.

Experiments:
[1] = cited from earlier work
[2] = tested on: sub-chronic PCP-induced deficit in novel object recognition; assay: Novel object recognition (NOR) test after sub-chronic PCP, animal model of schizophrenia; format: in vivo, rat (female hooded-Lister)
Source text: The effect of PCP in the novel object recognition (NOR) test is a model of visual recognition memory deficits similar to those observed in schizophrenia. The atypical antipsychotics, clozapine and risperidone, can attenuate the deficit. The study was designed to determine if botanically derived purified CBDV and/or synthetic CBDV could attenuate the deficits in novel object recognition caused by administration of PCP.
Female hooded-Lister rats were used for this experiment. Rats were housed in groups of 5 under standard laboratory conditions under a 12 hr light: dark cycle, with lights on at 0700 hr. Testing was carried out in the light phase. Rats were randomly assigned to two treatment groups and treated with vehicle, n=15 (distilled water, i.p.) or Phencyclidine hydrochloride (PCP), n=75 (2 mg/kg, i.p. twice daily for 7-days). PCP was dissolved in distilled water. This was followed by a 7-day wash out period before the rats were tested following acute treatment with […], risperidone or vehicle. […]
Following the 3 minute habituation period, the rats are given two 3 minute trials (T1 and T2) which were separated by a 1 minute inter-trial interval in the home cage during which the objects were changed. Behavior in all trials was recorded on video for subsequent blind scoring. […]
The exploration time(s) of each object (A, B, familiar and novel) in each trial were recorded using two stopwatches and the following factors were calculated: total exploration time of both objects in the acquisition trial, total exploration time of both objects in the retention trial. Habituation of exploratory activity included the exploration time, as measured by the number of lines crossed, for both trials.
All data were assessed for normality using D'Agostino and Pearson normality test. Data non-normally distributed were analyzed using Kruskal-Wallis followed by planned comparisons with Dunn's correction. Normally distributed data were analyzed using one-way ANOVA followed by planned comparisons with Sidak's correction. […]

[3] = Autofluorescence excitation scan (Ensight multimodal plate reader); format: physicochemical; conditions: 100 mM; for excitation peak point (first, lower-wavelength peak) / excitation peak point (second, higher-wavelength peak) / fluorescence intensity at first excitation peak / fluorescence intensity at second excitation peak: ethanol as vehicle
Experimental: (§1) Botanically derived purified CBDV (BOT) and Synthetic CBDV (SYN) were tested in duplicates at five concentrations of 0.1 mM, 0.5 mM, 1 mM, 50 mM and 100 mM in 100% DMSO or 100% Ethanol.
(§2) 200 μL of each sample or buffer were added into microplates in duplicate. Measurement has been performed on the Ensight multimodal plate reader (Perkin Elmer).
An excitation scan was used to detect the excitation peak for each test substance. The excitation scan was set from 230 to 380 nm and below the emission wavelength of 400 nm. The excitation scan was also set from 230 to 420 nm and below the emission wavelength of 440 nm. In both cases, a step increment of 2 nm was used for these scans.
Based on these analyses, the peaks of excitation wavelengths for the two tentative emission wavelengths were determined and used to identify the optimal excitation wavelength/s.

[4] = Autofluorescence emission scan (Ensight multimodal plate reader); format: physicochemical; conditions: 100 mM
Experimental: as §1, §2
In order to confirm the emission peak of the test substance, an emission scan was performed using the excitation peaks identified after the excitation scan. The […] was set to start for botanically derived purified CBDV and synthetic CBDV at 20 nm above the tentative excitation values using a step increment of 2 nm. Wavelengths up to 800 nm were scanned for emission.
The wavelength giving the maximum emission for the samples was defined as the optimal emission wavelength for the chosen excitation wavelength.

[5] = emission wavelength set at 400 nm
[6] = emission wavelength set at 440 nm
[7] = DMSO as vehicle, excitation wavelength set at 328 nm
[8] = DMSO as vehicle, excitation wavelength set at 334 nm
[9] = DMSO as vehicle, excitation wavelength set at 344 nm
[10] = ethanol as vehicle, excitation wavelength set at 326 nm
[11] = ethanol as vehicle, excitation wavelength set at 340 nm

## C=C(C)[C@@H]1CCC(C)=C[C@H]1c1c(O)cc(CCC)cc1O [CBDV, 2-[(1R,6R)-3-Methyl-6-(1-methylethenyl)-2-cyclohexen-1-yl]-5-propyl-1,3-benzenediol]
[1]; organic solvents
  solubility in organic solvents: soluble
[1]; water
  solubility in water: insoluble

## C=C(C)[C@@H]1CCC(C)=C[C@H]1c1c(O)cc(CCC)cc1O [synthetic CBDV, Cannabidivarin]
[2]; 70 kg human, rat dose x 0.16 x 70
  human daily amount of CBDV corresponding to the rat MED: 224 mg/day
[2]; rat dose multiplied by 0.16 (FDA dose conversion guidance)
  human equivalent dose of the rat MED: 3.2 mg/kg/day
[2]; rats, 2-20 mg/kg i.p., 60 min ppt, n=8-10 per group
  minimal effective dose (MED) attenuating sub-chronic PCP-induced deficit in novel object recognition: 20 mg/kg
[3]; [5]
  excitation peak point (first, lower-wavelength peak): 282 nm
  excitation peak point (second, higher-wavelength peak): 324 nm
  fluorescence intensity at first excitation peak: 139797 au
  fluorescence intensity at second excitation peak: 123100 au
[3]; [6]
  excitation peak point (first, lower-wavelength peak): 280 nm
  excitation peak point (second, higher-wavelength peak): 326 nm
  fluorescence intensity at first excitation peak: 39433 au
  fluorescence intensity at second excitation peak: 41443 au
[3]; pure DMSO as vehicle, emission wavelength set at 400 nm
  excitation peak points: 282 nm and 326 nm
[4]; [7]
  emission peak point: 394 nm
  fluorescence intensity at emission peak: 264597 au
[4]; [8]
  emission peak point: 392 nm
  fluorescence intensity at emission peak: 201880 au
[4]; [9]
  emission peak point: 390 nm
  fluorescence intensity at emission peak: 158071 au
[4]; [10]
  emission peak point: 390 nm
  fluorescence intensity at emission peak: 67541 au
[4]; [11]
  emission peak wavelength: 378 nm
  fluorescence intensity at peak: 29009 au
